Measured values as given in BindingDB's records for doi:10.1021/bi00152a045 (Mcmaster University, 1992).

target: Protein kinase C alpha type (Rattus norvegicus, UniProt P05696); test: Mixed Micelle Assay; settings: pH 7.5; 30 °C
Excerpt: The triton X-100 assay previously described by Bell and co-workers were used to measure enzyme activity.

IC50 [µM] | SMILES
164 | CC(C)CCCC(N)C1CCN2C3OC=C4CC(OC(=O)CCC(=O)OCCN(C)CCN(C)C)CCC4(C)C3CCC12C (stereo not drawn) [Amphiphile, XII]
15 | CC(C)CCCC(N)C1CCN2C3OC=C4CC(OC(=O)CCC(=O)OC(CN(C)C)C[N+](C)(C)C)CCC4(C)C3CCC12C (stereo not drawn) [Amphiphile, XI]
40 | CCCCCCCCCCCCCCCCCCCCCCCC(=O)OC(CN(C)C)C[N+](C)(C)C (stereo not drawn) [Amphiphile, XVII]
26 | CCCCCCCCCCCCCCCCCCCCCC(=O)OC(CN(C)C)C[N+](C)(C)C (stereo not drawn) [Amphiphile, XVI]
408 | CC(C)CCCC(N)C1CCN2C3OC=C4CC(OC(=O)CCC(=O)OC(CN(C)C)CN(C)C)CCC4(C)C3CCC12C (stereo not drawn) [Amphiphile, X]

More lines, now with the values behind:

SMILES | IC50 [µM]
CC(C)CCCC(C)C1CCC2C3CC=C4CC(C(=O)NCCN(C)C)CCC4(C)C3CCC12C (stereo not drawn) [Amphiphile, III] | 258
CC(C)CCCC(C)C1CCC2C3CC=C4CC(C(=O)NCC[N+](C)(C)C)CCC4(C)C3CCC12C (stereo not drawn) [Amphiphile, IV] | 12
CC(C)CCCC(N)C1CCN2C3OC=C4CC(OC(=O)CCC(=O)NCC[N+](C)(C)C)CCC4(C)C3CCC12C (stereo not drawn) [Amphiphile, IX] | 59
CC(C)CCCC(N)C1CCN2C3OC=C4CC(OC(=O)CCC(=O)NCCN(C)C)CCC4(C)C3CCC12C (stereo not drawn) [Amphiphile, VIII] | 191
CC(C)CCCC(C)C1CCC2C3CC=C4CC(C(=O)NCCN)CCC4(C)C3CCC12C (stereo not drawn) [Amphiphile, VII] | 246
CC(C)CCCC(C)C1CCC2C3CC=C4CC(C(=O)OC(CN(C)C)C[N+](C)(C)C)CCC4(C)C3CCC12C (stereo not drawn) [Amphiphile, VI] | 11
CC(C)CCCC(C)C1CCC2C3CC=C4CC(C(=O)OC(CN(C)C)CN(C)C)CCC4(C)C3CCC12C (stereo not drawn) [Amphiphile, V] | 643
CC(C)CCCC(N)C1CCN2C3OC=C4CC(OC(=O)CCC(=O)OCCN(C)CC[N+](C)(C)C)CCC4(C)C3CCC12C (stereo not drawn) [Amphiphile, XIII] | 20
